Test in all cases: Protein kinase inhibition assay
The target in one assay is Arg(m) (Mus musculus, UniProt Q4JIM5). Type of assay: biochemical. Particulars: read-out: percent residual activity of Arg(m). Here is the method:
(§1) Certain compounds were tested for activity in protein kinase inhibition assays. All substrates were dissolved and diluted to working stocks in de-ionized water, apart from histone H1 (10× working stock in 20 mM MOPS pH 7.0), PDKtide (10× working stock in 50 mM Tris pH 7.0) ATF2 (which is typically stored at a 20× working stock in 50 mM Tris pH 7.5, 150 mM NaCl, 0.1 mM EGTA, 0.03% Brij-35, 50% glycerol, 1 mM benzamidine, 0.2 mM PMSF and 0.1% R-mercaptoethanol), KKLNRTLSFAEPG (SEQ ID NO:203) and RRRLSFAEPG (SEQ ID NO:204) (50 mM HEPES pH 7.4) and GGEEEEYFELVKKKK (SEQ ID NO:205) (20 mM MOPS pH 7.0). All kinases were pre-diluted to a 10× working concentration prior to addition into the assay. The composition of the dilution buffer for each kinase is detailed below.
(§2) In a final reaction volume of 25 μl, Arg (m) (5-10 mU) is incubated with 8 mM MOPS pH 7.0, 0.2 mM EDTA, 50 μM EAIYAAPFAKKK (SEQ ID NO:206), 10 mM MgAcetate and [gamma-33P-ATP] (specific activity approx. 500 cpm/pmol, concentration as required). The reaction is initiated by the addition of the MgATP mix. After incubation for 40 minutes at room temperature, the reaction is stopped by the addition of 5 μl of a 3% phosphoric acid solution. 10 μl of the reaction is then spotted onto a P30 filtermat and washed three times for 5 minutes in 75 mM phosphoric acid and once in methanol prior to drying and scintillation counting.

Another assay concerns CK1(y). It is filed as biochemical, yeast. Particulars: 2.5 μM. The protocol: as §1
as §2, with “25 μl, CK1 (y) (5-10 mU)” for “25 μl, Arg (m) (5-10 mU)”, “mM EDTA, 200 μM KRRRALS(p)VASLPGL” for “mM EDTA, 50 μM EAIYAAPFAKKK”, “200 μM KRRRALS(p)VASLPGL (SEQ ID” for “50 μM EAIYAAPFAKKK (SEQ ID”, “(SEQ ID NO:214), 10 mM” for “(SEQ ID NO:206), 10 mM”, “of 5 μL of a” for “of 5 μl of a”

The target in a further assay is CaMKI(h) (Homo sapiens, UniProt Q14012). It is filed as biochemical. As to conditions: read-out: percent residual activity of CaMKI(h). The protocol:
as §1

The next assay has as its target DMPK(h) (Homo sapiens, UniProt Q09013). It is filed as biochemical. Particulars: read-out: percent residual activity of DMPK(h). Here is the method: as §1
A further assay concerns the target T1, DRAK1(h) (Homo sapiens, UniProt Q9UEE5).
T1 sequence (Q9UEE5 1-414): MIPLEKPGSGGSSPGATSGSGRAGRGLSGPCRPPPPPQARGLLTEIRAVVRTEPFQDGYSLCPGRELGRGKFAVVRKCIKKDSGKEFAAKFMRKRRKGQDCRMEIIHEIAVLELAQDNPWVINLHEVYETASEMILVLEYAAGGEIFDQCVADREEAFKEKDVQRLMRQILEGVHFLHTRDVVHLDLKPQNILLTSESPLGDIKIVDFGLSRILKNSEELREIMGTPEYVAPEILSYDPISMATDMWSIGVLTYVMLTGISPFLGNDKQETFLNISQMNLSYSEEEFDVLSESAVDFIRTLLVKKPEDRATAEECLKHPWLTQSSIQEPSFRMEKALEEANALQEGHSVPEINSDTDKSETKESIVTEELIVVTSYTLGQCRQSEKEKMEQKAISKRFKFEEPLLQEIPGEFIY
Type of assay: biochemical. Particulars: for remaining activity at 2.5 µM: read-out: percent residual activity of DRAK1(h). Here is the method:
as §1

The target in the next assay is DYRK2(h) (Homo sapiens, UniProt Q92630). Type of assay: biochemical. As to conditions: read-out: percent residual activity of DYRK2(h). Here is the method:
as §1

Another assay concerns the target MARK1(h) (Homo sapiens, UniProt Q9P0L2). Type of assay: biochemical. As to conditions: read-out: percent residual activity of MARK1(h). The protocol: as §1
The target in a further assay is MST3(h) (Homo sapiens, UniProt Q9Y6E0). Type of assay: biochemical. Particulars: read-out: percent residual activity of MST3(h). Here is the method: as §1
The next assay has as its target Mer(h) (Homo sapiens, UniProt Q12866). Type of assay: biochemical. As to conditions: read-out: percent residual activity of Mer(h). The protocol: as §1
A further assay has as its target NEK11(h) (Homo sapiens, UniProt Q8NG66). Type of assay: biochemical. Particulars: read-out: percent residual activity of NEK11(h). The protocol: as §1
A further assay concerns the target PAK3(h) (Homo sapiens, UniProt O75914). It is filed as biochemical. As to conditions: read-out: percent residual activity of PAK3(h). Here is the method: as §1
The target in a further assay is PAK5(h) (Homo sapiens, UniProt Q9P286). Type of assay: biochemical. As to conditions: read-out: percent residual activity of PAK5(h). The protocol: as §1
Sequence of PAK5(h) (Q9P286 whole entry): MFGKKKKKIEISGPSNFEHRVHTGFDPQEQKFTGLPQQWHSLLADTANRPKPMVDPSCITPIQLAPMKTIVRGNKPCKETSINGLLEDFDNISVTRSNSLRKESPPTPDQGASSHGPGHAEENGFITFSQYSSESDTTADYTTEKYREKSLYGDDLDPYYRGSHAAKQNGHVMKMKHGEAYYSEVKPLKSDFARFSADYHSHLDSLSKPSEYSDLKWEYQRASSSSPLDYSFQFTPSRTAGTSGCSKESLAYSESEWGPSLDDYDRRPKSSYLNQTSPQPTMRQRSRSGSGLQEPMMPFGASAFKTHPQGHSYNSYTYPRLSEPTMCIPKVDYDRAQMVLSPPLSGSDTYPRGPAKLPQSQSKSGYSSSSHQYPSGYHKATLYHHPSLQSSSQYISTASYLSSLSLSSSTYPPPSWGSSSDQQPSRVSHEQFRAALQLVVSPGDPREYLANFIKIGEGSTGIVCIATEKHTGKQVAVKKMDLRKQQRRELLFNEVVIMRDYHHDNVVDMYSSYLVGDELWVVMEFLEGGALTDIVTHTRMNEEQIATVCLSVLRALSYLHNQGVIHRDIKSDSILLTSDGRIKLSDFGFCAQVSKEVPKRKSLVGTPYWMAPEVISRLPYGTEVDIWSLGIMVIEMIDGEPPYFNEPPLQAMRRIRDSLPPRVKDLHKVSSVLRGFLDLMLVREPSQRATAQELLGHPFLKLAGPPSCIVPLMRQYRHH
Another assay deals with PhKγ2(h) (Homo sapiens, UniProt P15735). Type of assay: biochemical. Particulars: read-out: percent residual activity of PhKγ2(h). Here is the method:
as §1

In another assay the target is TSSK1(h) (Homo sapiens, UniProt Q9BXA7). Type of assay: biochemical. Particulars: read-out: percent residual activity of TSSK1(h). Here is the method:
as §1

The target in the next assay is PAK6(h) (Homo sapiens, UniProt Q9NQU5). It is filed as biochemical. Particulars: read-out: percent residual activity of PAK6(h). The protocol:
as §1
as §2, with “μl, PAK6 (h)” for “μl, Arg (m)”, “EDTA, 200” for “EDTA, 50”, “μM RRRLSFAEPG” for “μM EAIYAAPFAKKK”, “ID NO:223),” for “ID NO:206),”, “and [y-33P-ATP]” for “and [gamma-33P-ATP]”

A word on the inhibition: it is the drop in the measured response relative to a control, in per cent.

Sequence of NEK11(h) (Q8NG66 whole entry): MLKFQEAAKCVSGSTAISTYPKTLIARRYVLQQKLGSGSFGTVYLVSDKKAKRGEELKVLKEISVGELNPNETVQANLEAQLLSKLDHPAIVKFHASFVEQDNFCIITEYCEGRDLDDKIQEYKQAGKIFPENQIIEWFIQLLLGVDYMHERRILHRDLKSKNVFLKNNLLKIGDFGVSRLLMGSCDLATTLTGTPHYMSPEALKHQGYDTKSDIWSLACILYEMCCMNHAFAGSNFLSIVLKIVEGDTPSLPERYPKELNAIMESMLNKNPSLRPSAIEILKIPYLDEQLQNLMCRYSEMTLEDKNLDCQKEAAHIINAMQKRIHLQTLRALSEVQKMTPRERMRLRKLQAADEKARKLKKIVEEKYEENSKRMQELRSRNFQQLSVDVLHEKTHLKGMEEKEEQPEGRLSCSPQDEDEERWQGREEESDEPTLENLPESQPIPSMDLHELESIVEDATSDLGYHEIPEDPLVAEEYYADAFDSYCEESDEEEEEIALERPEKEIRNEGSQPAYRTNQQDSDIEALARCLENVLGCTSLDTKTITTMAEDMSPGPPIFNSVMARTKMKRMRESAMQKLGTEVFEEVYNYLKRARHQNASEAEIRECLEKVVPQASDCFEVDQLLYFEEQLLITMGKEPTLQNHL
Sequence of DYRK2(h) (Q92630 whole entry): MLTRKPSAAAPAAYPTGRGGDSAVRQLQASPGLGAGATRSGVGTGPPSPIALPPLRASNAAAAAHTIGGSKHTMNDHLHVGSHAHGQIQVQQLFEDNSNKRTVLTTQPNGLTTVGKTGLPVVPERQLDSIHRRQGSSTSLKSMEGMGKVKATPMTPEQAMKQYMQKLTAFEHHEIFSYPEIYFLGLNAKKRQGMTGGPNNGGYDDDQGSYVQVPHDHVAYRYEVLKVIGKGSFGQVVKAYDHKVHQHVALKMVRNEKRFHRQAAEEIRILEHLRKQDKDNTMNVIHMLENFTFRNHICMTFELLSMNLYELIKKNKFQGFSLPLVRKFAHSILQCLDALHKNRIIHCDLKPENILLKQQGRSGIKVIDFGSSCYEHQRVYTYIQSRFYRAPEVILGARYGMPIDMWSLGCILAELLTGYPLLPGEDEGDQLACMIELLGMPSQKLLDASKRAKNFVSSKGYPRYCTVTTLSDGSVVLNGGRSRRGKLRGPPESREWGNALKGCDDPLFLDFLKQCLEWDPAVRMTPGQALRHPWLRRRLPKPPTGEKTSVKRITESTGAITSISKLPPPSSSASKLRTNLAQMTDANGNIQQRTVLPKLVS
Sequence of PAK6(h) (Q9NQU5 whole entry): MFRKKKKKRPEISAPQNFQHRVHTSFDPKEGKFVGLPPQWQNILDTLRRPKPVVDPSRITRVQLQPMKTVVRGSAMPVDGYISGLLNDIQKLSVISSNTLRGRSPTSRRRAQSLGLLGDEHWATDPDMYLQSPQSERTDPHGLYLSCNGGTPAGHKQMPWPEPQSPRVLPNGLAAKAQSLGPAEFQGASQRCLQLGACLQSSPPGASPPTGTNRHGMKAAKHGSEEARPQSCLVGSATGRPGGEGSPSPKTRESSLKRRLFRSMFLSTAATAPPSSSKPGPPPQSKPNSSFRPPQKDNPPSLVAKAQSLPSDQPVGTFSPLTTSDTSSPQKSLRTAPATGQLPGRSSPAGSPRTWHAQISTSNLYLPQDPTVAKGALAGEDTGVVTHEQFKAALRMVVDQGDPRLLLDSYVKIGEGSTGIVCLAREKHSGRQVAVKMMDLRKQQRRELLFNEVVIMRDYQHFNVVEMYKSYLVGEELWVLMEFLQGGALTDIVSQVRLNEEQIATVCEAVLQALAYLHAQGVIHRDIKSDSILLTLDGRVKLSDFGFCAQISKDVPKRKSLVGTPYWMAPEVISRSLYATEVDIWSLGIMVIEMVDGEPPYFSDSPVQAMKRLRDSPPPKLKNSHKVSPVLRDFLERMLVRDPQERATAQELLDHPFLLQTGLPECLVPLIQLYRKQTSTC
Sequence of DMPK(h) (Q09013 whole entry): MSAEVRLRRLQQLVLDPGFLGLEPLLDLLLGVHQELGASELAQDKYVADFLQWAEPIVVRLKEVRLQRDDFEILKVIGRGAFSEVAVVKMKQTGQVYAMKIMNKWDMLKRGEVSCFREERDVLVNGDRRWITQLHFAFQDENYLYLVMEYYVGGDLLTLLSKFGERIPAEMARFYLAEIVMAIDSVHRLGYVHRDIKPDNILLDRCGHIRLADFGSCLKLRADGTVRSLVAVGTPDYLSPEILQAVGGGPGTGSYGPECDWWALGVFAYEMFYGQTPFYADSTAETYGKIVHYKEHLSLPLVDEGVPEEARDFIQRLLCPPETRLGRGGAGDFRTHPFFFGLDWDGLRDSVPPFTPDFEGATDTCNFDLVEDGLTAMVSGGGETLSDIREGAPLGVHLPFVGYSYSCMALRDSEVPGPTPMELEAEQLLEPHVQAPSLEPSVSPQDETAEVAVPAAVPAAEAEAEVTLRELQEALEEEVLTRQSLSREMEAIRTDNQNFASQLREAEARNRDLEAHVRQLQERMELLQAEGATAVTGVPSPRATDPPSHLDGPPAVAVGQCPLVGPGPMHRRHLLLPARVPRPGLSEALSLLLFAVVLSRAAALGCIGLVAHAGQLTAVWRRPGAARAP
Sequence of Arg(m) (Q4JIM5 whole entry): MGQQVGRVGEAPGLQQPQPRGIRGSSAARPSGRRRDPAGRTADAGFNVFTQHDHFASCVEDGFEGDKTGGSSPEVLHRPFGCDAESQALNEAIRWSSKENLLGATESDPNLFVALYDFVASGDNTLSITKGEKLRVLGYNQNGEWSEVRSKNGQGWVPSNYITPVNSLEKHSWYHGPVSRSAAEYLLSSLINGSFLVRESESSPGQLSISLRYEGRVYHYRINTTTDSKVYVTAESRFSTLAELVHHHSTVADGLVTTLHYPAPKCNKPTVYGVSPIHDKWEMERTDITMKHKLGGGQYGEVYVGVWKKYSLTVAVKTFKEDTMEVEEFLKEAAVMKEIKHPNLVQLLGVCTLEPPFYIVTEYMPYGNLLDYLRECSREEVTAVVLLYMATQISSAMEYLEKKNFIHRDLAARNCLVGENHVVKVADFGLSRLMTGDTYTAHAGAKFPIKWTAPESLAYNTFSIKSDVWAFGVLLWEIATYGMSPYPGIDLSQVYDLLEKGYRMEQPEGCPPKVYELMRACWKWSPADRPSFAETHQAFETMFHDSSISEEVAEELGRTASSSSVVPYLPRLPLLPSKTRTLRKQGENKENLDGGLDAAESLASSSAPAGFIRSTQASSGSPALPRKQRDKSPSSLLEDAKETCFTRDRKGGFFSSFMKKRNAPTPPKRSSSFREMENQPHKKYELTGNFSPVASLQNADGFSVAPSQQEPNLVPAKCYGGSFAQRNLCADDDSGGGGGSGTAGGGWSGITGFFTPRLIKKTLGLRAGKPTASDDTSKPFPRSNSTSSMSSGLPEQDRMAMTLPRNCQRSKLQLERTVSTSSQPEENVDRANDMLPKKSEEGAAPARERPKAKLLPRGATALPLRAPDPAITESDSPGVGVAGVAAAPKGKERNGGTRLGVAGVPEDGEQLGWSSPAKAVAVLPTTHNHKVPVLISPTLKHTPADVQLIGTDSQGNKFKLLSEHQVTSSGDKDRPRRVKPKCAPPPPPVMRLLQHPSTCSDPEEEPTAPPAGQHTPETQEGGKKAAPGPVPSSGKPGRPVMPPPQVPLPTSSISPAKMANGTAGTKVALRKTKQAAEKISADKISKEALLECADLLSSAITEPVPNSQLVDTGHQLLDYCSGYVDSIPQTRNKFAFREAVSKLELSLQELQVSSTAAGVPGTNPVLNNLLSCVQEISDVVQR
Sequence of PAK3(h) (O75914 whole entry): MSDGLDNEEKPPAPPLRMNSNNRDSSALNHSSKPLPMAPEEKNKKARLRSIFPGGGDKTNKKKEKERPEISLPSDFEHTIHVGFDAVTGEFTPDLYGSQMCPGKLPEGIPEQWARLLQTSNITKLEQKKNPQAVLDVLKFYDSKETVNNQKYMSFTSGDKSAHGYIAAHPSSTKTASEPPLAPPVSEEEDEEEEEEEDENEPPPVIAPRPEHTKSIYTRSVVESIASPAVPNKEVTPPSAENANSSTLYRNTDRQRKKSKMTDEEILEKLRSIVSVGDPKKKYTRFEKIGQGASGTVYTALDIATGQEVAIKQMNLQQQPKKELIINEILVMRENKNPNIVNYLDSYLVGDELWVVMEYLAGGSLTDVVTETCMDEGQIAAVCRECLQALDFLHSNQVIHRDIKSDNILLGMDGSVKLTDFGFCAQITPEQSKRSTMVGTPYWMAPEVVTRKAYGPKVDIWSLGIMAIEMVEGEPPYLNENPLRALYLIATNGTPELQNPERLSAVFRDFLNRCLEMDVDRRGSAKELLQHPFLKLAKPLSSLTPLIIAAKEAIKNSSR

For `CN1CCCC1CCNC(=O)c1cn2c3c(c(N4CCC(c5cnccn5)C4)c(F)cc3c1=O)Oc1cc3ccccc3cc1-2` (stereo not shown) [Compound A-1], the remaining activity at 2.5 µM on Arg(m) came out at 43%; at CaMKI(h), 95%; on DMPK(h) it was 92%; at DRAK1(h), 11%; at DYRK2(h) it was 70%; on MARK1(h), 83%. In addition, the remaining activity at 2.5 µM at MST3(h) was found to be 45%; at Mer(h), 111%; at NEK11(h) it was 70%; at PAK3(h), 88%; at PAK5(h), 103%; on PhKγ2(h), 46%. The remaining activity at 2.5 µM at TSSK1(h) was 98%; on PAK6(h), 123%. In addition, in the assay on CK1(y), the “percent residual activity of CK1(y)” value turned out to be 78%. On DRAK1(h), this molecule gave an inhibition at 2.5 µM of over 80%.

Consider `CC(=O)N1CCN(c2ccc3c(=O)c(C(=O)NCCN4CCCC4)c4n(C)c5ccccc5n4c3n2)CC1` [Compound B-1], for which the remaining activity at 2.5 µM at Arg(m) came to 102%; on CaMKI(h), 106%; at DMPK(h) it was 105%; on DRAK1(h), 117%; on DYRK2(h), 75%; on MARK1(h), 95%. The remaining activity at 2.5 µM on MST3(h) is 110%; at Mer(h) it was 125%; on NEK11(h), 107%; on PAK3(h) it was 91%; at PAK5(h), 101%; at PhKγ2(h), 118%. Moreover, the remaining activity at 2.5 µM came out at 107% on TSSK1(h) and 112% at PAK6(h). Further, the “percent residual activity of CK1(y)” value with CK1(y) stood at 77%.

For the origin of these results see US20070117770A1, “Human ribosomal DNA (rDNA) and ribosomal RNA (rRNA) nucleic acids and uses thereof” (Cylene Pharmaceuticals, Inc., priority 2005, published 2007).
